Tests used:
[1] = test system: C. acnes strain C3; assay: Evaluation of the minimum inhibitory concentration (MIC) of cosmetic excipients; format: cell-based, Cutibacterium acnes; details: MIC (% w/vol) at which compound starts interfering with growth, anaerobic, 3 days, 37° C., scored by turbidity
Method: (§1) In microbiology, the MIC is the lowest concentration of a chemical which prevents visible growth of bacterium. The resulted MIC value depends both on the microorganism and the test compound. The MIC is determined by preparing concentrations series of the test compound in vitro, incubating the solutions with the separate batches of cultured bacteria, and measuring the results using agar dilution or broth microdilution. For the experiments with C. acnes strains C3 and K8, media comprising yeast extract soy peptone and dextrose were used. The MIC is determined by turbidity.
(§2) A total of 125 cosmetic excipients were tested for their compatibility with C. acnes strains C3 and K8. Hydrophilic compounds were tested in a 96-well plate liquid broth format, poorly soluble compounds were pre-dissolved in DMSO before dilution in liquid broth and hydrophobic or solid compounds were tested in an agar well diffusion test assay. The different dilutions of the test excipients in media were prepared in Falcon tubes and then distributed in a deep well plate using a multistepper. Each well received 1.2 ml and was subsequently inoculated with 120 μl of C. acnes bacteria suspension (strain C3 and K8). From the deep well plate 200 μl were transferred in each well of a clear 96 well replicate plate. The leftover was discarded. The plates were then incubated anaerobically for 3 days at 37° C. Following incubation, the test plates were visually examined and wells were scored for growth or complete growth inhibition to define the minimum inhibitory concentration.
(§3) These excipients are listed in the below table with their compatibility values for C. acnes strains C3 and K8. The compatibility values represent the MIC value of the listed ingredients with the tested C. acnes strains. At this concentration [% w/vol] the tested compound starts interfering with the growth of the tested strains. The compounds can be used in formulations at concentrations below this concentration.

[2] = test system: C. acnes strain K8; assay: as above; format: cell-based, Cutibacterium acnes; details: MIC (% w/vol) at which compound starts interfering with growth, anaerobic, 3 days, 37° C., scored by turbidity
Method: as §1, §2, §3

Row | Molecule | COMPATABILITY VALUE C3 [%] [1] [%] | COMPATABILITY VALUE K8 [%] [2] [%]
1 | CCCCCCC(O)CO (centres unmarked) [caprylyl glycol] | 0.18 | 0.18
2 | CC(CO)CO [methylpropanediol] | 4.00 | 4.00
3 | ethylhexyl cocoate | 10.00 | 10.00
4 | tocopherol | 1.50 | 1.50

From patent US20230038623A1, “NOVEL SKIN CARE COMPOSITION” (BEIERSDORF AG, priority 2019, published 2023)
